From the NIST ThermoML archive (doi:10.1021/je060033f) come the findings set out here.

Structures are written as SMILES. Numbers after ± are expanded uncertainties.

This data set is described as follows: activity coefficient (dimensionless); of the first substance listed, at infinite dilution; xn = mol fraction of the nth substance listed. Conditions: 323.15 K; 101 kPa; Liquid; Chromatography; x1 = 0.
`ClC(Cl)Cl` [trichloromethane] + CCCCCCCCCC[n+]1ccn(CCCB(O)O)c1.[Br-]: the activity coefficient turned out to be 0.12 ± 0.03.

For the molecule `C=CCCCC` [hex-1-ene] + C=CCn1cc[n+](C)c1.[Br-], the activity coefficient was determined as 16.5 ± 1.1.

With `C#CCCCC` [1-hexyne] + C=CC[n+]1ccn(CCCCCCCCCC)c1.[Br-], the activity coefficient was 2.02 ± 0.14.

For `CCCCCCC` [heptane] + C[n+]1ccn(CCCB(O)O)c1.[Br-], the activity coefficient was 77.6 ± 5.3.

Consider `CCc1ccccc1` [ethylbenzene] + C=CC[n+]1ccn(CCCCCCCCCC)c1.[Br-], for which the activity coefficient is 2.54 ± 0.17.

On to `ClCCl` [dichloromethane] + C=CC[n+]1ccn(CCCCCCCCCCCC)c1.[Br-], for which the activity coefficient was determined as 0.25 ± 0.03.

As for `Cc1ccccc1C` [1,2-dimethylbenzene] + C[n+]1ccn(CCCB(O)O)c1.[Br-], the activity coefficient worked out at 44 ± 3.

As for `ClC(Cl)Cl` [trichloromethane] + C=CCn1cc[n+](C)c1.[Br-], the activity coefficient turned out to be 0.25 ± 0.03.

As to `C1CCCCC1` [cyclohexane] + C=CC[n+]1ccn(CCCCCCCCCC)c1.[Br-], the activity coefficient is 5.64 ± 0.38.

As to `ClC(Cl)Cl` [trichloromethane] + C[n+]1ccn(CCCB(O)O)c1.[Br-], the activity coefficient came to 3.01 ± 0.2.

Regarding `CCCCCCCC` [octane] + C=CC[n+]1ccn(CCCCCCCCCCCC)c1.[Br-], the activity coefficient is 6.37 ± 0.43.

In the case of `CC(C)CO` [2-methyl-1-propanol] + C=CCn1cc[n+](C)c1.[Br-], the activity coefficient amounted to 0.33 ± 0.03.

Consider `CC#N` [acetonitrile] + C=CCn1cc[n+](C)c1.[Br-], for which the activity coefficient was 1.04 ± 0.07.

For the molecule `CCc1ccccc1` [ethylbenzene] + CCCCCCCCCCCC[n+]1ccn(CCCB(O)O)c1.[Br-], the activity coefficient is 3.83 ± 0.26.

As for `CCO` [ethanol] + C=CC[n+]1ccn(CCCCCCCCCCCC)c1.[Br-], the activity coefficient was 0.23 ± 0.03.

As for `CCCCCC` [hexane] + CCCCCCCCCC[n+]1ccn(CCCB(O)O)c1.[Br-], the activity coefficient amounted to 5.45 ± 0.37.

Turning to `CO` [methanol] + C=CC[n+]1ccn(CCCCCCCCCCCC)c1.[Br-], the activity coefficient was found to be 0.15 ± 0.03.

Turning to `Cc1ccccc1` [toluene] + C=CC[n+]1ccn(CCCCCCCCCC)c1.[Br-], the activity coefficient came to 1.85 ± 0.12.

In the case of `C#CCCCCC` [1-heptyne] + CCCCCCCCCCCC[n+]1ccn(CCCB(O)O)c1.[Br-], the activity coefficient was determined as 2.2 ± 0.15.

On to `CCCCCCCCC` [nonane] + C=CC[n+]1ccn(CCCCCCCC)c1.[Br-], for which the activity coefficient is 17.4 ± 1.2.

Turning to `c1ccsc1` [thiophene] + C[n+]1ccn(CCCB(O)O)c1.[Br-], the activity coefficient stood at 19.4 ± 1.3.

With `C1COCCO1` [1,4-dioxane] + C=CCn1cc[n+](C)c1.[Br-], the activity coefficient is 1.59 ± 0.11.

Turning to `CC#N` [acetonitrile] + C=CC[n+]1ccn(CCCCCCCCCC)c1.[Br-], the activity coefficient stood at 0.89 ± 0.06.

Take `CCCCCC` [hexane] + C=CC[n+]1ccn(CCCCCCCCCCCC)c1.[Br-]: the activity coefficient was 4.41 ± 0.3.

Turning to `C#CCCCC` [1-hexyne] + CCCCCCCCCCCC[n+]1ccn(CCCB(O)O)c1.[Br-], the activity coefficient is 1.86 ± 0.13.

Consider `ClC(Cl)(Cl)Cl` [tetrachloromethane] + C=CC[n+]1ccn(CCCCCCCC)c1.[Br-], for which the activity coefficient stood at 0.82 ± 0.05.

Regarding `CCC(C)=O` [butanone] + CCCCCCCCCCCC[n+]1ccn(CCCB(O)O)c1.[Br-], the activity coefficient came to 1.33 ± 0.09.

Regarding `C1CCCCC1` [cyclohexane] + C=CC[n+]1ccn(CCCCCCCCCCCC)c1.[Br-], the activity coefficient was 3.12 ± 0.21.

`CCC[N+](=O)[O-]` [1-nitropropane] + C=CCn1cc[n+](C)c1.[Br-]: the activity coefficient stood at 1.83 ± 0.12.

For the molecule `C#CCCCCC` [1-heptyne] + C=CCn1cc[n+](C)c1.[Br-], the activity coefficient is 13.2 ± 0.9.

As for `CCC(C)=O` [butanone] + C=CC[n+]1ccn(CCCCCCCCCCCC)c1.[Br-], the activity coefficient was determined as 1.43 ± 0.09.

`ClCCl` [dichloromethane] + C=CC[n+]1ccn(CCCCCCCC)c1.[Br-]: the activity coefficient was found to be 0.28 ± 0.03.

As to `Cc1ccccc1C` [1,2-dimethylbenzene] + CCCCCCCCCCCC[n+]1ccn(CCCB(O)O)c1.[Br-], the activity coefficient is 1.78 ± 0.12.

For `Cc1cccc(C)c1` [1,3-dimethylbenzene] + CCCCCCCCCC[n+]1ccn(CCCB(O)O)c1.[Br-], the activity coefficient amounted to 2.11 ± 0.14.

As for `C#CCCCCC` [1-heptyne] + CCCCCCCCCC[n+]1ccn(CCCB(O)O)c1.[Br-], the activity coefficient is 2.22 ± 0.15.

On to `CCC[N+](=O)[O-]` [1-nitropropane] + C[n+]1ccn(CCCB(O)O)c1.[Br-], for which the activity coefficient stood at 15.8 ± 1.1.

Turning to `Cc1cccc(C)c1` [1,3-dimethylbenzene] + C=CC[n+]1ccn(CCCCCCCCCC)c1.[Br-], the activity coefficient was determined as 2.73 ± 0.19.

On to `CCCCCCCCC` [nonane] + CCCCCCCC[n+]1ccn(CCCB(O)O)c1.[Br-], for which the activity coefficient turned out to be 26.2 ± 1.8.

For the molecule `CCCCCC` [hexane] + C=CCn1cc[n+](C)c1.[Br-], the activity coefficient amounted to 25.1 ± 1.7.

For the molecule `ClC(Cl)(Cl)Cl` [tetrachloromethane] + C=CC[n+]1ccn(CCCCCCCCCC)c1.[Br-], the activity coefficient amounted to 0.8 ± 0.05.

Regarding `ClC(Cl)(Cl)Cl` [tetrachloromethane] + C[n+]1ccn(CCCB(O)O)c1.[Br-], the activity coefficient is 21.2 ± 1.4.

On to `CO` [methanol] + C=CC[n+]1ccn(CCCCCCCCCC)c1.[Br-], for which the activity coefficient was 0.17 ± 0.03.

Turning to `CCC[N+](=O)[O-]` [1-nitropropane] + C=CC[n+]1ccn(CCCCCCCC)c1.[Br-], the activity coefficient is 1.23 ± 0.08.

`c1ccsc1` [thiophene] + C=CC[n+]1ccn(CCCCCCCCCC)c1.[Br-]: the activity coefficient came out at 0.89 ± 0.06.

Turning to `Cc1cccc(C)c1` [1,3-dimethylbenzene] + C=CCn1cc[n+](C)c1.[Br-], the activity coefficient amounted to 11.1 ± 0.76.

For the molecule `CCCC(C)=O` [pentan-2-one] + C[n+]1ccn(CCCB(O)O)c1.[Br-], the activity coefficient came to 24.2 ± 1.7.

With `CCCC(C)=O` [pentan-2-one] + C=CC[n+]1ccn(CCCCCCCC)c1.[Br-], the activity coefficient was found to be 1.93 ± 0.13.

As to `c1ccsc1` [thiophene] + C=CCn1cc[n+](C)c1.[Br-], the activity coefficient came out at 1.48 ± 0.1.

With `Cc1cccc(C)c1` [1,3-dimethylbenzene] + C=CC[n+]1ccn(CCCCCCCCCCCC)c1.[Br-], the activity coefficient was 1.85 ± 0.12.

For `ClC(Cl)Cl` [trichloromethane] + CCCCCCCCCCCC[n+]1ccn(CCCB(O)O)c1.[Br-], the activity coefficient was found to be 0.19 ± 0.03.

For the molecule `C#CCCCC` [1-hexyne] + C=CC[n+]1ccn(CCCCCCCCCCCC)c1.[Br-], the activity coefficient came to 1.56 ± 0.1.

Turning to `Cc1ccccc1C` [1,2-dimethylbenzene] + CCCCCCCCCC[n+]1ccn(CCCB(O)O)c1.[Br-], the activity coefficient is 1.89 ± 0.13.

For the molecule `CCOCC` [diethyl ether] + C=CC[n+]1ccn(CCCCCCCCCC)c1.[Br-], the activity coefficient was found to be 3.54 ± 0.24.

As to `CCCCCC` [hexane] + C=CC[n+]1ccn(CCCCCCCCCC)c1.[Br-], the activity coefficient worked out at 8.39 ± 0.57.

On to `C=CCCCC` [hex-1-ene] + C=CC[n+]1ccn(CCCCCCCCCC)c1.[Br-], for which the activity coefficient is 5.89 ± 0.4.

On to `CCc1ccccc1` [ethylbenzene] + C=CC[n+]1ccn(CCCCCCCC)c1.[Br-], for which the activity coefficient is 2.56 ± 0.17.

In the case of `CCOCC` [diethyl ether] + C=CC[n+]1ccn(CCCCCCCCCCCC)c1.[Br-], the activity coefficient was found to be 2.95 ± 0.2.

Turning to `CC#N` [acetonitrile] + CCCCCCCCCCCC[n+]1ccn(CCCB(O)O)c1.[Br-], the activity coefficient came out at 1.16 ± 0.07.

`CCCC(C)=O` [pentan-2-one] + CCCCCCCCCCCC[n+]1ccn(CCCB(O)O)c1.[Br-]: the activity coefficient was determined as 1.63 ± 0.11.

As to `CCCCCCC` [heptane] + CCCCCCCC[n+]1ccn(CCCB(O)O)c1.[Br-], the activity coefficient came to 20.2 ± 1.4.

As to `ClC(Cl)Cl` [trichloromethane] + C=CC[n+]1ccn(CCCCCCCCCC)c1.[Br-], the activity coefficient stood at 0.13 ± 0.03.

Turning to `CC#N` [acetonitrile] + C=CC[n+]1ccn(CCCCCCCC)c1.[Br-], the activity coefficient was found to be 0.98 ± 0.06.

For the molecule `c1ccccc1` [benzene] + CCCCCCCCCC[n+]1ccn(CCCB(O)O)c1.[Br-], the activity coefficient came to 1.33 ± 0.09.

In the case of `CCCO` [propan-1-ol] + C=CC[n+]1ccn(CCCCCCCCCC)c1.[Br-], the activity coefficient stood at 0.28 ± 0.03.

Consider `ClC(Cl)Cl` [trichloromethane] + C=CC[n+]1ccn(CCCCCCCCCCCC)c1.[Br-], for which the activity coefficient worked out at 0.12 ± 0.03.

For the molecule `C1CCCCC1` [cyclohexane] + C=CC[n+]1ccn(CCCCCCCC)c1.[Br-], the activity coefficient amounted to 5.66 ± 0.39.

Consider `ClC(Cl)(Cl)Cl` [tetrachloromethane] + CCCCCCCC[n+]1ccn(CCCB(O)O)c1.[Br-], for which the activity coefficient came to 1.23 ± 0.08.

Turning to `C#CCCCCC` [1-heptyne] + C=CC[n+]1ccn(CCCCCCCCCC)c1.[Br-], the activity coefficient was 2.58 ± 0.18.

Regarding `CC#N` [acetonitrile] + C=CC[n+]1ccn(CCCCCCCCCCCC)c1.[Br-], the activity coefficient came to 0.86 ± 0.06.

Consider `c1ccccc1` [benzene] + C=CCn1cc[n+](C)c1.[Br-], for which the activity coefficient is 3.6 ± 0.25.

With `CO` [methanol] + C=CCn1cc[n+](C)c1.[Br-], the activity coefficient amounted to 0.18 ± 0.03.

With `C#CCCCCC` [1-heptyne] + C=CC[n+]1ccn(CCCCCCCC)c1.[Br-], the activity coefficient was 2.56 ± 0.17.

Turning to `c1ccccc1` [benzene] + C=CC[n+]1ccn(CCCCCCCC)c1.[Br-], the activity coefficient came out at 1.4 ± 0.09.

Turning to `CCCCCC` [hexane] + CCCCCCCC[n+]1ccn(CCCB(O)O)c1.[Br-], the activity coefficient was found to be 18.2 ± 1.2.

Take `ClCCl` [dichloromethane] + C=CC[n+]1ccn(CCCCCCCCCC)c1.[Br-]: the activity coefficient worked out at 0.27 ± 0.03.

Consider `C1COCCO1` [1,4-dioxane] + C=CC[n+]1ccn(CCCCCCCCCC)c1.[Br-], for which the activity coefficient is 1.39 ± 0.09.

Regarding `C1CCCCC1` [cyclohexane] + C=CCn1cc[n+](C)c1.[Br-], the activity coefficient came out at 15.7 ± 1.1.

Turning to `ClCCl` [dichloromethane] + CCCCCCCCCC[n+]1ccn(CCCB(O)O)c1.[Br-], the activity coefficient turned out to be 0.25 ± 0.03.
